According to patent EP2969029B1, “USE OF COSMETICALLY OR DERMATOLOGICALLY SAFE SUBSTITUTED MICHAEL ACCEPTORS FOR THE PREVENTION, REDUCTION OR PROPHYLAXIS OF THE TYROSINASE ACTIVITY OF THE HUMAN SKIN AND/OR THE LIGHTENING OF THE HUMAN SKIN” (Beiersdorf AG, priority 2013, dated 2014):

Each compound was assayed against T1, humane Tyrosinase (Homo sapiens, UniProt P14679) (assay: Enzyme test: conversion of L-DOPA to L-dopaquinone by human tyrosinase, MBTH detection, absorption at 490 nm). Conditions: Inhibition der Tyrosinaseaktivität, substrate L-DOPA.
T1 sequence (P14679 19-529): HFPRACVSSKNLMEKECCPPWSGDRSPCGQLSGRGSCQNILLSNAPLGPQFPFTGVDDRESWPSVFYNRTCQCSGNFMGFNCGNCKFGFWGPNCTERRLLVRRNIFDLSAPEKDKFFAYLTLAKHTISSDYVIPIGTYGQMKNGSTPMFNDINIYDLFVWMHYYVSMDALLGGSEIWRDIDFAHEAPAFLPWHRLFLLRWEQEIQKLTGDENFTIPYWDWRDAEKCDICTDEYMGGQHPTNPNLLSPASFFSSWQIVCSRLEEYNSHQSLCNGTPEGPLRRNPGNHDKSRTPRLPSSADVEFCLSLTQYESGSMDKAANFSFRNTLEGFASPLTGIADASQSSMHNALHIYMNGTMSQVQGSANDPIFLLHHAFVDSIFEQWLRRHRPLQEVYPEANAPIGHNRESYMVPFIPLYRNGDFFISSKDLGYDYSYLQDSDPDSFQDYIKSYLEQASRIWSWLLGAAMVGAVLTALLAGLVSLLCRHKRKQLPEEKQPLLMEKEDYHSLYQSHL
Assay type: biochemical

| EC50 | SMILES |
| --- | --- |
| 2660 µM | COc1ccc(C(=O)O)c(O)c1 [2-Hydroxy-4-methoxy Benzoesäure] |
| 494 µM | CCCc1c[nH]c(=S)[nH]c1=O [5-Propyl-2-thioxo-2,3-dihydropyrimidin-4(1H)-on] |
| 32 µM | O=C(O)/C=C/c1cccs1 [(E)-3-(thiophen-2-yl)acrylsäure] |
| 515 µM | O=C(/C=C/c1ccc(O)cc1)NCCc1c[nH]c2ccc(O)cc12 [(E)-N-(2-(5-hydroxy-1H-indol-3-yl)ethyl)-3-(4-hydroxyphenyl)acrylamid] |
| 1550 µM | COc1ccc(C(=O)/C=C(\O)c2ccc(C(C)(C)C)cc2)cc1 [(Z)-3-(4-(tert-butyl)phenyl)-3-hydroxy-1-(4-methoxyphenyl)prop-2-en-1-on] |
| 2340 µM | C=CCOC(=O)C=Cc1ccccc1 [Allyl cinnamat] |
| 378 µM | O=C(OCc1ccccc1)c1ccccc1O [Benzyl 2-hydroxybenzoat] |
| 998 µM | O=C(OCc1ccccc1)c1ccccc1 [Benzyl benzoat] |
| 260 µM | O=C(C=Cc1ccccc1)OCc1ccccc1 [Benzyl cinnamat] |
| 547 µM | O=C(OC1CCCCC1)c1ccccc1O [Cyclohexyl 2-hydroxybenzoat] |
| 2590 µM | CCOC(=O)C=Cc1ccccc1 [Ethyl cinnamat] |
| 4230 µM | CCCCCCOC(=O)c1ccccc1O [Hexyl 2-hydroxybenzoat] |
| 358 µM | COc1ccc(C=CC(=O)OCCC(C)C)cc1 [Isoamyl p-Methoxycinnamat] |
| 1530 µM | C/C=C/C=C/C(=O)O [Kaliumsorbat] |
| 2450 µM | COC(=O)c1cc(O)ccc1O [Methyl 2,5-Dihydroxybenzoat] |
| 2610 µM | C=COC(=O)C=Cc1ccccc1 [Vinyl cinnamat] |

| SMILES | EC50 |
| --- | --- |
| CC1CCC(=CC(=O)O)CC1 (stereo not shown) [2-(4-Methyl-1-cyclohexyliden)essigsäure] | 6540 µM |
| O=C(O)/C=C/c1c[nH]c2ccccc12 [(E)-3-(1H-indol-3-yl)acrylsäure] | 833 µM |
| O=C(O)/C=C/c1ccc(O)c(O)c1 [(E)-3-(3,4-dihydroxyphenyl)acrylsäure] | 1370 µM |
| O=C(O)/C=C/c1ccco1 [(E)-3-(furan-2-yl)acrylsäure] | 166 µM |
| O=C(O)/C=C/c1cccnc1 [(E)-3-(pyridin-3-yl)acrylsäure] | 634 µM |
| O=C(O)/C=C/c1ccncc1 [(E)-3-(pyridin-4-yl) acrylsäure] | 697 µM |
| O=C(O)c1ccccc1 [Natrium Benzoat] | 1440 µM |
| O=CC=Cc1ccccc1 [Zinnamaldehyd] | 211 µM |
| COc1cc(/C=C/C(=O)O)ccc1O [trans-Ferulasäure] | 2210 µM |
